Results published in patent publication US20230219965A1 (KSQ Therapeutics, Inc., priority 2020, published 2023).
Like-named read-outs stand apart in the source and are kept apart here.

Columns and labels:
[1] = target: USP1/UAF1 enzyme (Homo sapiens, UniProt O94782); experiment: USP1/UAF1 deubiquitination assay (ubiquitin-rhodamine 110 substrate); assay type: biochemical; settings: read-out: USP1 IC50 (Ub-Rho)
Procedure, shortened: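 Cleavage of 150 nM ubiquitin-rhodamine 110 by 0.05 nM USP1/UAF1 was followed as fluorescence (Ex480/Em540, kinetic, 30 min) in Tris-HCl pH 7.8 buffer with EDTA, BSA, DTT and Tween-20. Compounds, top 10 μM, were preincubated with enzyme 10 min; % inhibition against no-enzyme and DMSO wells gave four-parameter IC50s.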

[2] = Liver microsomal metabolic stability, human liver microsomes (HLM); settings: human, liver microsomes
[3] = tested on: Ub-PCNA levels in the nucleus of ES2 cells (USP1 activity); experiment: ES2 Ub-PCNA immunofluorescence (IF) assay; assay type: cell-based; settings: Homo sapiens, ES-2; ES2 cells, 3 hours, Ub-PCNA immunofluorescence; read-out: USP1 IC50 (Ub-PCNA)
Procedure, shortened: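 AC50 derived from percent Ub-PCNA-positive nuclei, positivity set by a 95% cutoff from untreated-well intensities. Readout by imaging immunofluorescence (anti-Ub-PCNA, DAPI nuclear mask) after methanol fixation. Compound exposure: 3 h at 37° C, 0.3% DMSO final, on cells plated overnight.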

[4] = Liver microsomal metabolic stability, rat liver microsomes (RLM); settings: rat, liver microsomes, t1/2 (min) in RLM, 1 μM compound, 1 mg/mL microsomes, NADPH
[5] = ADME solubility determination in PBS at pH 2.0 and pH 7.4; assay type: physicochemical; settings: phosphate buffered saline, 25 °C, thermodynamic from solid
Procedure, shortened: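 Solubility was read by LC-MS/MS on centrifuged supernatants, calibrated to a known-concentration standard and corrected for dilution. Compound, dried down from 10 mM DMSO stock, was equilibrated 24 h at 25° C with shaking in PBS at pH 2.0 or pH 7.4.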

[6] = pH 2, aqueous buffer, PBS pH 2.0, 25° C., read-out: Solubility at pH 2.0
[7] = pH 7.4, aqueous buffer, PBS pH 7.4, 25° C., read-out: Solubility at pH 7.4

Sequence of USP1/UAF1 enzyme (O94782 whole entry): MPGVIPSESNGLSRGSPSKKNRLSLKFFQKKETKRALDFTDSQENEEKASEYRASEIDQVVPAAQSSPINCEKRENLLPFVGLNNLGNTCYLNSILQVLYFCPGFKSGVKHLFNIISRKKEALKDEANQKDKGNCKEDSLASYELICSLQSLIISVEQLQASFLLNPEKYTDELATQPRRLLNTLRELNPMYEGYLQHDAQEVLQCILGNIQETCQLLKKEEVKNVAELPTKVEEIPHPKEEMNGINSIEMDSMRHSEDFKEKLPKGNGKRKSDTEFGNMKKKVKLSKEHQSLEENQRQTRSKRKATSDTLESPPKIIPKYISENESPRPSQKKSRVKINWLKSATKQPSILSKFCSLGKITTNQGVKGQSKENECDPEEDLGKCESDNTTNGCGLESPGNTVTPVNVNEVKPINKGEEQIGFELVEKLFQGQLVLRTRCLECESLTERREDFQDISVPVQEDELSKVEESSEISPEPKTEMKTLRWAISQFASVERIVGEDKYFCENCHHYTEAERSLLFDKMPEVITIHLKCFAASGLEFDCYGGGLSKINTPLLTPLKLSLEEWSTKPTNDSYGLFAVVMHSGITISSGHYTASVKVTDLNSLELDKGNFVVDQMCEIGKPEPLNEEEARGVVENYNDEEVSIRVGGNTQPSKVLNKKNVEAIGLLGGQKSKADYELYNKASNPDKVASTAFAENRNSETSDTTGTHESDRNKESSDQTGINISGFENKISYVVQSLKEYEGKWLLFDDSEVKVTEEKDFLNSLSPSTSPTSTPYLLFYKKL
Sequence of USP1/UAF1 enzyme (Q8TAF3 whole entry partner): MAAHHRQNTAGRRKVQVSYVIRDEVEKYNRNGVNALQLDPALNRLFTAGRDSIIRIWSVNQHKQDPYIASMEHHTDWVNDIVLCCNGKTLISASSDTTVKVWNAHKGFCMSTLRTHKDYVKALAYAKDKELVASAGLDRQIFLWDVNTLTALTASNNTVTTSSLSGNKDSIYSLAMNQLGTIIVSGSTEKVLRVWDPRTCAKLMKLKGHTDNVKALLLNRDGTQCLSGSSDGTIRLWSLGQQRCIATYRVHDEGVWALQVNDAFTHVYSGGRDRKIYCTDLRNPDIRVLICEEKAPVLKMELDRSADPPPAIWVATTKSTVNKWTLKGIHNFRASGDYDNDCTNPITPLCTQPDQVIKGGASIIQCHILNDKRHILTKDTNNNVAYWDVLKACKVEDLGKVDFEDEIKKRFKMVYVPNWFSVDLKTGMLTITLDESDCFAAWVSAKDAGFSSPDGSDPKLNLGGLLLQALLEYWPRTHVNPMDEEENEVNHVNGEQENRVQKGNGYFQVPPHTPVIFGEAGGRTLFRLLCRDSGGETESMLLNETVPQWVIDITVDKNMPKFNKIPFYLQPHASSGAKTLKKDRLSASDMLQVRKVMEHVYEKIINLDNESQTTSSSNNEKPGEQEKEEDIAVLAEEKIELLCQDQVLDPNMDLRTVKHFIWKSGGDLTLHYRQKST

COc1ncnc(C2CC2)c1-c1nc2n(n1)CCC(=O)N2Cc1ccc(-c2nc(C(F)(F)F)cn2C)cc1 [Example 43]
IC50 [1]: < 100 nM | half-life at 1 μM [2]: > 25 min | IC50 [3]: 100 to 500 nM | half-life at 1 μM [4]: > 25 min | solubility at 24 h [5, 6]: ≥ 10 µM | solubility at 24 h [5, 7]: < 10 µM

CCn1cc(C(F)(F)F)nc1-c1ccc(CN2C(=O)CCn3nc(-c4c(OC)ncnc4C4CC4)nc32)cc1F [Example 44]
IC50 [1]: < 100 nM | half-life at 1 μM [2]: > 25 min | IC50 [3]: < 100 nM | half-life at 1 μM [4]: > 25 min | solubility at 24 h [5, 6]: < 10 µM | solubility at 24 h [5, 7]: < 10 µM

COc1cc(CN2C(=O)CCn3nc(-c4c(OC)ncnc4C(C)C)nc32)ccc1-c1nc(C(F)(F)F)cn1C(C)C [Example 46]
IC50 [1]: 100 to 500 nM | half-life at 1 μM [2]: > 25 min | IC50 [3]: 100 to 500 nM | half-life at 1 μM [4]: > 25 min | solubility at 24 h [5, 6]: ≥ 10 µM | solubility at 24 h [5, 7]: ≥ 10 µM

CCn1cc(C(F)(F)F)nc1-c1ccc(CN2c3cc(-c4c(OC)ncnc4C4CC4)nn3CCC2C)cc1F (stereo not drawn) [Example 49]
IC50 [1]: < 100 nM | half-life at 1 μM [2]: < 25 min | IC50 [3]: < 100 nM | half-life at 1 μM [4]: < 25 min | solubility at 24 h [5, 6]: ≥ 10 µM | solubility at 24 h [5, 7]: < 10 µM

CC1CCn2nc(-c3c(Cl)cnn3C(C)C)cc2N1Cc1ccc(-c2nc(C(F)(F)F)cn2C(C)C)c(F)c1 (stereo not drawn) [Example 50]
IC50 [1]: < 100 nM | half-life at 1 μM [2]: < 25 min | IC50 [3]: < 100 nM | half-life at 1 μM [4]: < 25 min | solubility at 24 h [5, 6]: < 10 µM | solubility at 24 h [5, 7]: < 10 µM

Cc1cnn(C(C)C)c1-c1cc2n(n1)CCCN2Cc1ccc(-c2nc(C(F)(F)F)nn2C)cc1 [Example 53]
IC50 [1]: < 100 nM | half-life at 1 μM [2]: < 25 min | IC50 [3]: 100 to 500 nM | half-life at 1 μM [4]: < 25 min | solubility at 24 h [5, 6]: < 10 µM | solubility at 24 h [5, 7]: < 10 µM

Cc1cnn(C(C)C)c1-c1cc2n(n1)CCCN2Cc1ccc(-c2nc(C(F)(F)F)cn2C(C)C)cc1 [Example 54]
IC50 [1]: < 100 nM | half-life at 1 μM [2]: < 25 min | IC50 [3]: < 100 nM | half-life at 1 μM [4]: < 25 min | solubility at 24 h [5, 6]: ≥ 10 µM | solubility at 24 h [5, 7]: < 10 µM

Cc1cnn(C(C)C)c1-c1cc2n(n1)CCCN2Cc1ccc(-c2nc(C(F)(F)F)cn2C)c(F)c1 [Example 55]
IC50 [1]: < 100 nM | half-life at 1 μM [2]: < 25 min | IC50 [3]: < 100 nM | half-life at 1 μM [4]: < 25 min | solubility at 24 h [5, 6]: ≥ 10 µM | solubility at 24 h [5, 7]: < 10 µM

COc1cc(C(F)(F)F)nn1-c1ccc(CN2CCCn3nc(-c4c(C)cnn4C(C)C)cc32)cc1F [Example 57]
IC50 [1]: < 100 nM | half-life at 1 μM [2]: < 25 min | IC50 [3]: < 100 nM | half-life at 1 μM [4]: < 25 min | solubility at 24 h [5, 6]: < 10 µM | solubility at 24 h [5, 7]: < 10 µM

COc1ncnc(C2CC2)c1-c1cc2n(n1)CCCN2Cc1ccc(-c2nc(C(F)(F)F)cn2C(C)C)cc1 [Example 58]
IC50 [1]: < 100 nM | half-life at 1 μM [2]: < 25 min | IC50 [3]: < 100 nM | half-life at 1 μM [4]: < 25 min | solubility at 24 h [5, 6]: ≥ 10 µM | solubility at 24 h [5, 7]: < 10 µM

CC(C)n1cc(C(F)(F)F)nc1-c1ccc(CN2CCCn3nc(-c4c(Cl)cnn4C(C)C)cc32)cc1F [Example 59]
IC50 [1]: < 100 nM | half-life at 1 μM [2]: < 25 min | IC50 [3]: < 100 nM | half-life at 1 μM [4]: < 25 min | solubility at 24 h [5, 6]: < 10 µM | solubility at 24 h [5, 7]: < 10 µM

CC(C)n1ncc(Cl)c1-c1cc2n(n1)CCCN2Cc1ccc(-c2nc(C(F)(F)F)cn2C)c(F)c1 [Example 61]
IC50 [1]: < 100 nM | half-life at 1 μM [2]: < 25 min | IC50 [3]: < 100 nM | half-life at 1 μM [4]: < 25 min | solubility at 24 h [5, 6]: < 10 µM | solubility at 24 h [5, 7]: < 10 µM

CC(C)n1ncc(Cl)c1-c1cc2n(n1)CCCN2Cc1ccc(-c2nc(C(F)(F)F)cn2CCF)cc1 [Example 62]
IC50 [1]: < 100 nM | half-life at 1 μM [2]: < 25 min | IC50 [3]: < 100 nM | half-life at 1 μM [4]: < 25 min | solubility at 24 h [5, 6]: < 10 µM | solubility at 24 h [5, 7]: < 10 µM

COc1ncnc(C2CC2)c1-c1cc2n(n1)CCCN2Cc1ccc(-c2nc(C(F)(F)F)cn2C(C)C)c(F)c1 [Example 63]
IC50 [1]: < 100 nM | half-life at 1 μM [2]: < 25 min | IC50 [3]: < 100 nM | half-life at 1 μM [4]: < 25 min | solubility at 24 h [5, 6]: ≥ 10 µM | solubility at 24 h [5, 7]: < 10 µM
